For this assay, the target named is T1, Cbl-b (truncated variant, UniProt number Q13191) (Homo sapiens, UniProt Q13191).
T1 construct: made in house
Kind of assay: Cbl-b activity assay (TR-FRET, interaction of Cbl-b with UbcH5B-Ub). Format: biochemical. (In general: TR-FRET usually uses a lanthanide donor and a delayed reading to cut background.)

Where [1] appears, read: Biological Example 1A, low or high conditions not stated, read-out: IC50 values in the Cbl-b inhibition assay of Biological Example 1A.
The mark [2] stands for this setting: high conditions: 100 mM NaCl, 60 nM Src kinase, 12 nM Cbl-b, read-out: Cbl-b activity IC50.

The values that follow come from US12653809B2, “Urea, amide, and substituted heteroaryl compounds for CBL-B inhibition” (Nurix Therapeutics, Inc., priority 2019, dated 2026).

pIC50: −log10 of the molar value. Read-outs that look alike come from different tables or passages of the source.

T1 sequence (Q13191 36-427): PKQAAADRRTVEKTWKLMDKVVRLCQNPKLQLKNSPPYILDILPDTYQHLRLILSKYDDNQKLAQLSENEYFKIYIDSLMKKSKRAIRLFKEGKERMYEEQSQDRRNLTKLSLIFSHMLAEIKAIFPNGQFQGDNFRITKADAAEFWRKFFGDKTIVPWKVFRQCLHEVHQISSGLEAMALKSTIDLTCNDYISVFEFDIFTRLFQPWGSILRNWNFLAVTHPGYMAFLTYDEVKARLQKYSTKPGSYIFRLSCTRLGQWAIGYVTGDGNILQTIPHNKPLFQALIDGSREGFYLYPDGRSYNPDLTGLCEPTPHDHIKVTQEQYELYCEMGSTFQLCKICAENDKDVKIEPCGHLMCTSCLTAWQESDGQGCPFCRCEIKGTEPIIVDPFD

Regarding `C[C@H](Sc1nncn1C)c1cccc(-n2ncc(-c3ccc(Cl)cc3)n2)c1` [Example 72, (S)-4-(4-chlorophenyl)-2-(3-(1-((4-methyl-4H-1,2,4-triazol-3-yl)thio)ethyl)phenyl)-2H-1,2,3-triazole], the pIC50 (in general, the IC50 on a negative log10 scale, so that one unit is a factor of ten) runs as follows: under setting [1], 5.30 to 6.00; under setting [2], 5.30 to 6.00.
`C[C@H](Sc1nncn1C)c1cccc(-n2cc(-c3ccc(Cl)cc3)nn2)c1` [Example 73, (S)-4-(4-chlorophenyl)-1-(3-(1-((4-methyl-4H-1,2,4-triazol-3-yl)thio)ethyl)phenyl)-1H-1,2,3-triazole]: the pIC50 is 5.30 to 6.00 under setting [1] and 5.30 to 6.00 under setting [2].
For the molecule `COc1ccc(-c2cnn(-c3cccc([C@H](C)Sc4nncn4C)c3)n2)cc1` [Example 74, (S)-4-(4-methoxyphenyl)-2-(3-(1-((4-methyl-4H-1,2,4-triazol-3-yl)thio)ethyl)phenyl)-2H-1,2,3-triazole], the pIC50 was 6.00 to 7.00 under setting [1] and 6.00 to 7.00 under setting [2].
Regarding `COc1ccc(-c2cn(-c3cccc([C@H](C)Sc4nncn4C)c3)nn2)cc1` [Example 75, (S)-4-(4-methoxyphenyl)-1-(3-(1-((4-methyl-4H-1,2,4-triazol-3-yl)thio)ethyl)phenyl)-1H-1,2,3-triazole], the pIC50 under setting [2] is 5.30 to 6.00.
`COc1cccc(-c2cnn(-c3cccc([C@H](C)Sc4nncn4C)c3)n2)c1` [Example 76, (S)-4-(3-methoxyphenyl)-2-(3-(1-((4-methyl-4H-1,2,4-triazol-3-yl)thio)ethyl)phenyl)-2H-1,2,3-triazole]: the pIC50 under setting [2] is 5.30 to 6.00.
Same read-out and setting: for `COc1cccc(-c2cn(-c3cccc([C@H](C)Sc4nncn4C)c3)nn2)c1` [Example 77, (S)-4-(3-methoxyphenyl)-1-(3-(1-((4-methyl-4H-1,2,4-triazol-3-yl)thio)ethyl)phenyl)-1H-1,2,3-triazole] the value was 5.30 to 6.00; for `C[C@H](Sc1nncn1C)c1cccc(-n2ncc(-c3cccc(Cl)c3)n2)c1` [Example 78, 4-(3-chlorophenyl)-2-[3-[(1S)-1-[(4-methyl-4H-1,2,4-triazol-3-yl)sulfanyl]ethyl]phenyl]-2H-1,2,3-triazole], 5.30 to 6.00; for `C[C@H](Sc1nncn1C)c1cccc(-n2cc(-c3cccc(Cl)c3)nn2)c1` [Example 79, 4-(3-chlorophenyl)-1-{3-[(1S)-1-[(4-methyl-4H-1,2,4-triazol-3-yl)sulfanyl]ethyl]phenyl}-1H-1,2,3-triazole], 5.30 to 6.00.
For the molecule `C[C@H](Sc1nncn1C)c1cccc(-n2ncc(-c3ccc(C(=O)O)cc3)n2)c1` [Example 80, (S)-4-(2-(3-(1-(4-methyl-4H-1,2,4-triazol-3-ylthio)ethyl)phenyl)-2H-1,2,3-triazol-4-yl)benzoic acid], the pIC50 reads like this: under setting [1], ≤ 5.30; under setting [2], ≤ 5.30.
For `C[C@H](Sc1nncn1C)c1cccc(-n2cc(-c3ccc(C(=O)O)cc3)nn2)c1` [Example 81, (S)-4-(1-(3-(1-(4-methyl-4H-1,2,4-triazol-3-ylthio)ethyl)phenyl)-1H-1,2,3-triazol-4-yl)benzoic acid], the pIC50 is, setting by setting: under setting [1], ≤ 5.30; under setting [2], ≤ 5.30.
As to `CNC(=O)c1ccc(-c2cnn(-c3cccc([C@H](C)Sc4nncn4C)c3)n2)cc1` [Example 82, (S)—N-methyl-4-(2-(3-(1-(4-methyl-4H-1,2,4-triazol-3-ylthio)ethyl)phenyl)-2H-1,2,3-triazol-4-yl)benzamide], the negative-log IC50 (pIC50) runs as follows: under setting [1], 5.30 to 6.00; under setting [2], 5.30 to 6.00.
As to `CNC(=O)c1ccc(-c2cn(-c3cccc([C@H](C)Sc4nncn4C)c3)nn2)cc1` [Example 83, (S)—N-methyl-4-(1-(3-(1-(4-methyl-4H-1,2,4-triazol-3-ylthio)ethyl)phenyl)-1H-1,2,3-triazol-4-yl)benzamide], the negative-log IC50 (pIC50) under setting [1] was ≤ 5.30 and the pIC50 under setting [2] was ≤ 5.30.
Turning to `C[C@H](Sc1nncn1C)c1cccc(-n2ncc(-c3ccc(CO)cc3)n2)c1` [Example 84, (S)-(4-(2-(3-(1-(4-methyl-4H-1,2,4-triazol-3-ylthio)ethyl)phenyl)-2H-1,2,3-triazol-4-yl)phenyl)methanol], the pIC50 is 5.30 to 6.00 under setting [1] and 5.30 to 6.00 under setting [2].
As for `C[C@H](Sc1nncn1C)c1cccc(-n2cc(-c3ccc(CO)cc3)nn2)c1` [Example 85, (S)-(4-(1-(3-(1-(4-methyl-4H-1,2,4-triazol-3-ylthio)ethyl)phenyl)-1H-1,2,3-triazol-4-yl)phenyl)methanol], the negative-log IC50 (pIC50) runs as follows: under setting [1], ≤ 5.30; under setting [2], ≤ 5.30.
Consider `C[C@H](Sc1nncn1C)c1cccc(-n2ncc(-c3ccc(C(N)=O)cc3)n2)c1` [Example 86, (S)-4-(2-(3-(1-(4-methyl-4H-1,2,4-triazol-3-ylthio)ethyl)phenyl)-2H-1,2,3-triazol-4-yl)benzamide], for which the pIC50 reads like this: under setting [1], 5.30 to 6.00; under setting [2], 5.30 to 6.00.
Turning to `C[C@H](Sc1nncn1C)c1cccc(-n2cc(-c3ccc(C(N)=O)cc3)nn2)c1` [Example 87, (S)-4-(1-(3-(1-(4-methyl-4H-1,2,4-triazol-3-ylthio)ethyl)phenyl)-1H-1,2,3-triazol-4-yl)benzamide], the pIC50 by setting is: under setting [1], 5.30 to 6.00; under setting [2], 5.30 to 6.00.
For the molecule `C[C@H](Sc1nncn1C)c1cccc(-n2ncc(-c3ccc(C#N)cc3)n2)c1` [Example 88, (S)-4-(2-(3-(1-(4-methyl-4H-1,2,4-triazol-3-ylthio)ethyl)phenyl)-2H-1,2,3-triazol-4-yl)benzonitrile], the pIC50 is, setting by setting: under setting [1], 6.00 to 7.00; under setting [2], 6.00 to 7.00.
Regarding `C[C@H](Sc1nncn1C)c1cccc(-n2cc(-c3ccc(C#N)cc3)nn2)c1` [Example 89, (S)-4-(1-(3-(1-(4-methyl-4H-1,2,4-triazol-3-ylthio)ethyl)phenyl)-1H-1,2,3-triazol-4-yl)benzonitrile], the pIC50 was 5.30 to 6.00 under setting [1] and 5.30 to 6.00 under setting [2].
For `C[C@H](Sc1nncn1C)c1cccc(-n2ncc(-c3cccc(C(=O)O)c3)n2)c1` [Example 90, (S)-3-(2-(3-(1-(4-methyl-4H-1,2,4-triazol-3-ylthio)ethyl)phenyl)-2H-1,2,3-triazol-4-yl)benzoic acid], the pIC50 under setting [1] is 5.30 to 6.00 and the pIC50 under setting [2] was 5.30 to 6.00.
In the case of `C[C@H](Sc1nncn1C)c1cccc(-n2cc(-c3cccc(C(=O)O)c3)nn2)c1` [Example 91, (S)-3-(1-(3-(1-(4-methyl-4H-1,2,4-triazol-3-ylthio)ethyl)phenyl)-1H-1,2,3-triazol-4-yl)benzoic acid], the pIC50 was ≤ 5.30 under setting [1] and ≤ 5.30 under setting [2].
As to `C[C@H](Sc1nncn1C)c1cccc(-n2cc(-c3cccc(CO)c3)nn2)c1` [Example 92, (S)-(3-(1-(3-(1-(4-methyl-4H-1,2,4-triazol-3-ylthio)ethyl)phenyl)-1H-1,2,3-triazol-4-yl)phenyl)methanol], the negative logarithm of the IC50 (pIC50) under setting [1] was ≤ 5.30 and the pIC50 under setting [2] is ≤ 5.30.
Take `CNC(=O)c1cccc(-c2cnn(-c3cccc([C@H](C)Sc4nncn4C)c3)n2)c1` [Example 93, (S)—N-methyl-3-(2-(3-(1-(4-methyl-4H-1,2,4-triazol-3-ylthio)ethyl)phenyl)-2H-1,2,3-triazol-4-yl)benzamide]: the pIC50 under setting [1] was 5.30 to 6.00 and the pIC50 under setting [2] is 5.30 to 6.00.
As for `CNC(=O)c1cccc(-c2cn(-c3cccc([C@H](C)Sc4nncn4C)c3)nn2)c1` [Example 94, (S)—N-methyl-3-(1-(3-(1-(4-methyl-4H-1,2,4-triazol-3-ylthio)ethyl)phenyl)-1H-1,2,3-triazol-4-yl)benzamide], the pIC50 was ≤ 5.30 under setting [1] and ≤ 5.30 under setting [2].
